Data as given in PubChem BioAssay (NCI).
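Interpolation was linear, between the two tested concentrations surrounding the appropriate level; five concentrations were tested over 48 hours in 96-well plates. GI50 is the concentration that inhibits growth by half. The concentration for full growth arrest is given as TGI.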

Key:
Test in all cases: growth of human tumour cells (NCI), 48 h
SK-MEL-5 melanoma = system: SK-MEL-5 melanoma
SR leukemia = system: SR leukemia
SNB-75 CNS = system: SNB-75 CNS
SF-295 CNS = system: SF-295 CNS
HOP-62 NSCLC = system: HOP-62 NSCLC
HOP-92 NSCLC = system: HOP-92 NSCLC
MDA-MB-435 = system: MDA-MB-435
SNB-19 CNS = system: SNB-19 CNS
PC-3 prostate = system: PC-3 prostate
MCF7 breast = system: MCF7 breast
OVCAR-3 ovarian = system: OVCAR-3 ovarian
OVCAR-4 ovarian = system: OVCAR-4 ovarian
SF-268 CNS = system: SF-268 CNS
SW-620 colon = system: SW-620 colon
NCI-H226 lung = system: NCI-H226 lung
TK-10 renal = system: TK-10 renal
NCI-H460 lung = system: NCI-H460 lung
RPMI-8226 leukemia = system: RPMI-8226 leukemia
SK-MEL-28 melanoma = system: SK-MEL-28 melanoma
UO-31 renal = system: UO-31 renal
COLO 205 colon = system: COLO 205 colon
UACC-62 melanoma = system: UACC-62 melanoma
K-562 leukemia = system: K-562 leukemia
CCRF-CEM leukemia = system: CCRF-CEM leukemia
BT-549 breast = system: BT-549 breast
RXF 393 renal = system: RXF 393 renal
HT29 colon = system: HT29 colon
HCT-15 colon = system: HCT-15 colon
MDA-MB-468 breast = system: MDA-MB-468 breast
HL-60(TB) leukemia = system: HL-60(TB) leukemia

Question: With `OC(c1ccccc1)(c1ccccc1)C1CCN(c2ccc3nnc(Cl)n3n2)CC1` as the compound, how does the TGI (SK-MEL-5 melanoma) read?
Answer: The TGI was 26.6 µM.

Question: And the GI50 (SR leukemia)?
Answer: The GI50 was 10.9 µM.

Question: And the TGI (SR leukemia)?
Answer: Its TGI is 47.5 µM.

Question: And the GI50 (SNB-75 CNS)?
Answer: Its GI50 is 14.6 µM.

Question: What about the TGI (SNB-75 CNS) of the same compound?
Answer: The TGI was 36.9 µM.

Question: What about the GI50 (SF-295 CNS) of the same compound?
Answer: Its GI50 is 17 µM.

Question: And the TGI (SF-295 CNS)?
Answer: Its TGI is 54.1 µM.

Question: What about the GI50 (HOP-62 NSCLC) of the same compound?
Answer: The GI50 was 44 µM.

Question: And the TGI (HOP-62 NSCLC)?
Answer: The TGI was greater than 100 µM.

Question: And the GI50 (HOP-92 NSCLC)?
Answer: The GI50 was 10.8 µM.

Question: What about the TGI (HOP-92 NSCLC) of the same compound?
Answer: Its TGI is 29 µM.

Question: And the GI50 (MDA-MB-435)?
Answer: The GI50 was 19.5 µM.

Question: And the TGI (MDA-MB-435)?
Answer: The TGI was 43.3 µM.

Question: What about the GI50 (SNB-19 CNS) of the same compound?
Answer: The GI50 was 36.3 µM.

Question: What about the TGI (SNB-19 CNS) of the same compound?
Answer: Its TGI is greater than 100 µM.

Question: And the GI50 (PC-3 prostate)?
Answer: Its GI50 is 8.75 µM.

Question: And the TGI (PC-3 prostate)?
Answer: Its TGI is 62.2 µM.

Question: What about the GI50 (MCF7 breast) of the same compound?
Answer: Its GI50 is 16.2 µM.

Question: What about the TGI (MCF7 breast) of the same compound?
Answer: The TGI was 44.2 µM.

Question: And the GI50 (OVCAR-3 ovarian)?
Answer: Its GI50 is 21.1 µM.

Question: What about the TGI (OVCAR-3 ovarian) of the same compound?
Answer: The TGI was 65.7 µM.

Question: What about the GI50 (OVCAR-4 ovarian) of the same compound?
Answer: The GI50 was 23.2 µM.

Question: What about the TGI (OVCAR-4 ovarian) of the same compound?
Answer: Its TGI is greater than 100 µM.

Question: And the GI50 (SF-268 CNS)?
Answer: The GI50 was 26.3 µM.

Question: And the TGI (SF-268 CNS)?
Answer: The TGI was greater than 100 µM.

Question: What about the GI50 (SW-620 colon) of the same compound?
Answer: The GI50 was 25 µM.

Question: What about the TGI (SW-620 colon) of the same compound?
Answer: The TGI was 67.8 µM.

Question: And the GI50 (NCI-H226 lung)?
Answer: Its GI50 is 14.5 µM.

Question: And the TGI (NCI-H226 lung)?
Answer: The TGI was 38.9 µM.

Question: And the GI50 (TK-10 renal)?
Answer: The GI50 was 22.9 µM.

Question: And the TGI (TK-10 renal)?
Answer: The TGI was 62.5 µM.

Question: What about the GI50 (NCI-H460 lung) of the same compound?
Answer: Its GI50 is 14.1 µM.

Question: And the TGI (NCI-H460 lung)?
Answer: The TGI was 32.6 µM.

Question: And the GI50 (RPMI-8226 leukemia)?
Answer: Its GI50 is 9.29 µM.

Question: And the TGI (RPMI-8226 leukemia)?
Answer: The TGI was 50.8 µM.

Question: What about the GI50 (SK-MEL-28 melanoma) of the same compound?
Answer: The GI50 was 18.3 µM.

Question: What about the TGI (SK-MEL-28 melanoma) of the same compound?
Answer: Its TGI is 43 µM.

Question: What about the GI50 (UO-31 renal) of the same compound?
Answer: Its GI50 is 11 µM.

Question: And the TGI (UO-31 renal)?
Answer: Its TGI is 29.1 µM.

Question: What about the GI50 (COLO 205 colon) of the same compound?
Answer: Its GI50 is 18.3 µM.

Question: And the TGI (COLO 205 colon)?
Answer: The TGI was 46.2 µM.

Question: And the GI50 (UACC-62 melanoma)?
Answer: Its GI50 is 14.6 µM.

Question: What about the TGI (UACC-62 melanoma) of the same compound?
Answer: Its TGI is 30.4 µM.

Question: And the GI50 (K-562 leukemia)?
Answer: The GI50 was 14 µM.

Question: What about the TGI (K-562 leukemia) of the same compound?
Answer: The TGI was greater than 100 µM.

Question: And the GI50 (CCRF-CEM leukemia)?
Answer: The GI50 was 12.8 µM.

Question: What about the TGI (CCRF-CEM leukemia) of the same compound?
Answer: Its TGI is greater than 100 µM.

Question: And the GI50 (BT-549 breast)?
Answer: The GI50 was 13.9 µM.

Question: And the TGI (BT-549 breast)?
Answer: Its TGI is 29.8 µM.

Question: What about the GI50 (RXF 393 renal) of the same compound?
Answer: The GI50 was 14.5 µM.

Question: What about the TGI (RXF 393 renal) of the same compound?
Answer: The TGI was 29.4 µM.

Question: And the GI50 (HT29 colon)?
Answer: Its GI50 is 16.9 µM.

Question: And the TGI (HT29 colon)?
Answer: Its TGI is 36.4 µM.

Question: What about the GI50 (HCT-15 colon) of the same compound?
Answer: The GI50 was 15.7 µM.

Question: What about the TGI (HCT-15 colon) of the same compound?
Answer: The TGI was 54.2 µM.

Question: What about the GI50 (MDA-MB-468 breast) of the same compound?
Answer: The GI50 was 13 µM.

Question: What about the TGI (MDA-MB-468 breast) of the same compound?
Answer: The TGI was 35.4 µM.

Question: And the GI50 (HL-60(TB) leukemia)?
Answer: Its GI50 is 12.7 µM.

Question: What about the TGI (HL-60(TB) leukemia) of the same compound?
Answer: Its TGI is 42.9 µM.
